The nature of series [1]: Pilot PK of FAH65 vs. verubecestat in rats. It counts as in vivo, rat. To be noted: oral gavage, 30 mg/kg.
The next series concerns the target T1, BACE2 (Homo sapiens, UniProt Q9Y5Z0).
T1 construct: purchased R&D Systems 4097-AS
T1 sequence (Q9Y5Z0 63-518): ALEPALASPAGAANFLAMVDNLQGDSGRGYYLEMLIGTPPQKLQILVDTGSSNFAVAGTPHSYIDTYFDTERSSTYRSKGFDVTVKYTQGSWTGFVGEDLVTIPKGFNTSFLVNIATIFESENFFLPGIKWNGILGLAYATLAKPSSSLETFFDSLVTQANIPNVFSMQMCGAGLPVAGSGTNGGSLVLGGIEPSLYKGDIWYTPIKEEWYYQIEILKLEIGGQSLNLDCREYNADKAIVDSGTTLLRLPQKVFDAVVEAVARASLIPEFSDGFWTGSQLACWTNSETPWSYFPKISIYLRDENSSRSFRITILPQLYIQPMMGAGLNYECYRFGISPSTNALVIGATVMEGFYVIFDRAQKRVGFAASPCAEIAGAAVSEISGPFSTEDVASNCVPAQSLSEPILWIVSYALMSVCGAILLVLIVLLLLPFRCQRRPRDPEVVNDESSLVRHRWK
Kind of series: BACE2 activity assay. In kind it is biochemical. On the procedure: The effects of candidate ASBIs on BACE2 activity was assessed using the R&D Systems BACE2 activity assay kit (Catalog #: 4097-AS and ES010) formatted from to the manufacturers. For the assay, 4 μL of assay buffer was added to each well, followed by 2 μL of BACE2 diluted in assay buffer to 10 ng/µL.
Then, 2 μL of inhibitor, at the appropriate concentrations were added to the wells and incubated for 30 minutes at room temperature. For all dilutions of inhibitor, drug stock solutions of 10 mM in DMSO were diluted to 50 μM in water; subsequent dilutions were in 0.5% DMSO. Afterwards, 2 μL of fluorogenic BACE2 substrate, diluted to 50 μM in assay buffer, were added to each well, after which the signal generated was read every 30 minutes at 25 °C for 2 hr (Fig S2).
(§1) FAH65 and its enantiomers at 10 mM in 100% DMSO was diluted in PBS pH 7.4 to 100, 10, 1, and 0.1 µM; plus, a vehicle-only control. The solutions were incubated at 37 °C for 90 min and centrifuged at 16K x g for 5 min. An aliquot of each supernatant was analyzed by LC-MS/MS. A standard curve was generated by plotting the known amount of analyte per standard in DMSO vs. chromatographic peak […]
(§2) Kinetic solubility (µM) was calculated using the trendline equation with maximum chromatographic peak area observed in the aqueous sample. (Table S3)
Liver microsome stability assay […]

Series [2] has as its target T2, human serum albumin (HSA) (Homo sapiens, UniProt P02768).
T2 construct: purchased Chiral Technologies H15L-109
Kind of series: Human serum albumin (HSA) binding assay. It counts as in vitro ADME. How it is done: Human serum albumin (HSA) binding assay
The liquid chromatography-ultraviolet/visible spectroscopy (LC-UV/Vis) assay was performed on a 1290 Infinity HPLC system (Agilent Technologies) with an HPLC column containing immobilized HSA
([…]® CAN, Chiral Technologies, Cat#H15L-109, 5 µm 50 x 4 mm). The HPLC method utilized an isocratic gradient containing 100% 6.7 mM phosphate buffer saline (pH 7.4). The retention time of the compound (tr) and injection peak were recorded.
The percent protein binding (P) was calculated using the following equations:
K’ = (tr – tm) / tm; P = 100 x [K’ / (K’ + 1)] […]
The […]
KIAM = (tr – t0) / t0; Pm = (KIAM / MW4) x 1010
Compounds with a Pm >0.85 are predicted to be BBB permeable (CNS+) at pH 7.4.
Brain Tissue Binding Assay […]
Cat#23235). Brain homogenate was diluted to 20 mg/mL in PBS (pH 7.4) and added to Slide-A-Lyzer™ MINI Dialysis Devices, 10K MWCO dialysis cups (Thermo Fisher Scientific, Cat#PI88401) in a 48-well plate containing PBS (500 µL; pH 7.4). 1 µL of 1 mM compound was added to the brain homogenate (final concentration: 2 µM compound, 0.5% DMSO) and incubated on a rocker for 4.5 hours at 37 °C. 50 µL of brain homogenate (within the dialysis cup) and PBS (within the 48-well plate) were transferred to new microcentrifuge tubes containing 200 µL of quenching reagent (100% acetonitrile) containing internal […]
standard. […]

A further series in a line: Kinetic solubility assay. In kind it is physicochemical. As to conditions: aqueous buffer, kinetic from dmso stock, PBS pH 7.4, 37 °C. On the procedure:
as §1, §2
(§3) Liver microsome stability assay
(§4) A 1 µL sample of 1 mM FAH65 and its enantiomers in 100% DMSO was added to 1 mL of 0.5 mg/mL human liver microsomes (Thermo Fisher Scientific, Cat# HMMPL) in PBS pH 7.4, 2 mM NADPH, and 2 mM MgCl2; and incubated at 37 °C for 120 min. Aliquots (50 µL) of the microsome solution were taken […]
quenching solution containing an internal standard. Solutions were clarified by centrifugation (16K x g, 5 min) and supernatants transferred to new tubes and lyophilized. Samples were reconstituted in 100 µL of 50/50/0.1 water/acetonitrile/formic acid prior to analysis via LC-MS/MS. […]
(§5) One µL FAH65 and its enantiomers (1 mM in 100% DMSO) was added to human peripheral blood plasma (Cat#70039, Stemcell Technologies Inc) diluted 2-fold in PBS (1000 µL, pH 7.4) and incubated […]

Series [3] can be described thus: Liver microsome stability assay. As to conditions: human, human liver microsomes, pH 7.4, human liver microsomes; read-out: Microsomal stability T1/2. It counts as in vitro ADME. How it is done:
as §3, §4
quenching solution containing an internal standard. Solutions were clarified by centrifugation (16K x g, 5 min) and supernatants transferred to new tubes and lyophilized. Samples were reconstituted in 100 µL of 50/50/0.1 water/acetonitrile/formic acid prior to analysis via LC-MS/MS.
Normalized chromatographic peak areas were plotted at each time point and the half-life (t1/2) of compound in liver microsomes was determined by using the trendline equation to calculate the time at which compound abundance was 50% of that at timepoint 0 (T0).
as §5
and 180 min, and added to a 200 µL 100% acetonitrile reaction quenching solution containing an internal standard. Solutions were clarified by centrifugation (16K x g, 5 min) and supernatants were transferred to new tubes and lyophilized. […]

For series [4], the target named is T3, potassium channel hERG (human) (Homo sapiens, UniProt Q12809).
T3 construct: Eurofins (CEREP PanLabs)
T3 sequence (Q12809 whole entry): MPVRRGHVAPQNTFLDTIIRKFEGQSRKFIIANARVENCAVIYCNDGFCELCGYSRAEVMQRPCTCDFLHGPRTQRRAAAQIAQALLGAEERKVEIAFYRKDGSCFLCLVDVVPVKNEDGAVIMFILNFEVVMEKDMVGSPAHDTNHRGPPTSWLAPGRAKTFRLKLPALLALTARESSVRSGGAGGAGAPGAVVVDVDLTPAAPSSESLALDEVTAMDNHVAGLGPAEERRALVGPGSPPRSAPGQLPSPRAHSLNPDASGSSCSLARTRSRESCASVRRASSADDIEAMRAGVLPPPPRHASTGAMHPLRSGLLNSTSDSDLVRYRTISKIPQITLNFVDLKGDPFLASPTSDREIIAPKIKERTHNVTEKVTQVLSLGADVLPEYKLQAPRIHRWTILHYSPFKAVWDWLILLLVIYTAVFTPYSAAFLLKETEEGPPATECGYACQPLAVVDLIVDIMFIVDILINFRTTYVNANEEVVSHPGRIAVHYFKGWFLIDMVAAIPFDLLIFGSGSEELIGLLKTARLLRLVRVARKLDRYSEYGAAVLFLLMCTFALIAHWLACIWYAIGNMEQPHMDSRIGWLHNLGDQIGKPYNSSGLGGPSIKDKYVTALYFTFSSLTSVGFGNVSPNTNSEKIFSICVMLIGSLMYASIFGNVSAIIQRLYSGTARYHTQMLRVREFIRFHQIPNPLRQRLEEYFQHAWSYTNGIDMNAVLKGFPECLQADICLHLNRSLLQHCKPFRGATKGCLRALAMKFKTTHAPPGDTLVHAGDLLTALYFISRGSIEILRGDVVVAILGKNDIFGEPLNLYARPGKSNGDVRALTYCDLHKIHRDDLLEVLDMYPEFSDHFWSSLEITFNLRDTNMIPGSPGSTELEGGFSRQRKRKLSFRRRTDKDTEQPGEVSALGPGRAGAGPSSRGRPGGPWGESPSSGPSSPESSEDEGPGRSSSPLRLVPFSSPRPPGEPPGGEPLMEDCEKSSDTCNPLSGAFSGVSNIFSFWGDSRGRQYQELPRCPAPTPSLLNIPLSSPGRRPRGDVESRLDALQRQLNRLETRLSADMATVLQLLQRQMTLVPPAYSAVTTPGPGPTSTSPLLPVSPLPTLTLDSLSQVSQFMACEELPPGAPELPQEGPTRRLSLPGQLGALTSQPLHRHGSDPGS
Kind of series: hERG [3H] dofitilide binding assay. The source says:
The raw data uncorrected for contribution of
Animals were euthanized at
biochemical analyses (Fig. S3).
at Lotus Separations (Princeton, NJ).

Values after ≈ are worked out from the molar mass of the structure shown. “Also recorded” adds a separate entry of the source.

One molecule from article PMC12491701, “Discovery of an APP-selective BACE1 inhibitor for Alzheimer's disease” (Neurotherapeutics, 2025) can be followed below.

T2 sequence (P02768 25-609): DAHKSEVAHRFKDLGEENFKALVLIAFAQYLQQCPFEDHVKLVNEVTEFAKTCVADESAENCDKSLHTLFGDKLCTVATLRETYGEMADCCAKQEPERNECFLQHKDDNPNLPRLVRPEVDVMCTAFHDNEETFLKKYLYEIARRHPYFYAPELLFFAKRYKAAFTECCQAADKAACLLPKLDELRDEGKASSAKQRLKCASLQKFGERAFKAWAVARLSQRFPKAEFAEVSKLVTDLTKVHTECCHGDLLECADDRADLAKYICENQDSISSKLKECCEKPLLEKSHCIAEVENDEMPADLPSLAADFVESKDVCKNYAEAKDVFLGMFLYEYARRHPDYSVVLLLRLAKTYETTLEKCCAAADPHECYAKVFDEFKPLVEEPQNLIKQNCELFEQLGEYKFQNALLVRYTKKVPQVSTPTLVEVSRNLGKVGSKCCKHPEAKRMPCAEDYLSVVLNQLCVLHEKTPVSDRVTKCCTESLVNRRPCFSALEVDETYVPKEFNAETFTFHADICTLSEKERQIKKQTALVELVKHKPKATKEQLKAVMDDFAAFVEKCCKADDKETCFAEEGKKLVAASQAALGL

`Cc1cc(C2(c3cccc(-c4cncnc4)c3)N=C(N)N(C)C2=O)ccc1OC(F)F` (stereo not drawn) [FAH65] had a Cmax in series [1] (both sexes, Sprague-Dawley, rat, brain) of 182 ng/g. Besides, the “time of brain Cmax” value in series [1] is 2 h. The molecule also had an IC50 at BACE2 greater than 1000 nM. In addition, on BACE2 (in words), the “inhibition of BACE2 activity” value is reported as “no inhibition; also recorded: did not inhibit”. Also, the “Plasma (HSA) binding, funbound” value in series [2] is 0.44%. Besides, in the series “Kinetic solubility assay”, the kinetic solubility at 90 min stood at 88 µM (≈ 37.3 µg/mL). Further, the half-life at 1 µM in series [3] was determined as 38 min. Moreover, in series [4], the EC50 is greater than 10 µM and the IC50 is greater than 10 µM.
